This assay has as its system MV-4-11 cells. The assay is described as follows: Gene expression microarray analysis (Affymetrix PrimeView) and GSEA. The format is cell-based, human. Details: RFU PODN (11730768_x_at) / Fold change /veh PODN (11730768_x_at) / RFU LINC00158 (11744669_a_at) / Fold change /veh LINC00158 (11744669_a_at) / RFU DUSP10 (11751237_a_at) / Fold change /veh DUSP10 (11751237_a_at) / RFU ID3 (11757404_x_at) / Fold change /veh ID3 (11757404_x_at) / RFU PLEKHG5 (11737974_s_at) / Fold change /veh PLEKHG5 (11737974_s_at) / RFU LRRC4B (11730491_at) / Fold change /veh LRRC4B (11730491_at) / RFU GIMAP4 (11747438_a_at) / Fold change /veh GIMAP4 (11747438_a_at) / RFU KRT8 (11758183_x_at) / Fold change /veh KRT8 (11758183_x_at) / RFU CNN1 (11734310_a_at) / Fold change /veh CNN1 (11734310_a_at) / RFU VPS37D (11726825_at) / Fold change /veh VPS37D (11726825_at) / RFU C10orf10 (11716522_x_at) / Fold change /veh C10orf10 (11716522_x_at) / RFU KIR2DL2 /// KIR2DL4 /// KIR2DL5A /// KIR2DL5B /// KIR2DS1 /// KIR2DS2 /// KIR2DS3 /// KIR2DS4 /// KIR3DL3 /// KIR3DL3 /// KIR3DS1 (11738374_at) / Fold change /veh KIR2DL2 /// KIR2DL4 /// KIR2DL5A /// KIR2DL5B /// KIR2DS1 /// KIR2DS2 /// KIR2DS3 /// KIR2DS4 /// KIR3DL3 /// KIR3DL3 /// KIR3DS1 (11738374_at) / RFU C1QL1 (11718748_at) / Fold change /veh C1QL1 (11718748_at) / RFU TMPRSS4 (11747572_a_at) / Fold change /veh TMPRSS4 (11747572_a_at) / RFU HAMP (11756126_x_at) / Fold change /veh HAMP (11756126_x_at) / RFU RNFT2 (11725882_a_at) / Fold change /veh RNFT2 (11725882_a_at) / RFU NR4A2 (11747474_a_at) / Fold change /veh NR4A2 (11747474_a_at) / RFU ABCC12 (11746883_a_at) / Fold change /veh ABCC12 (11746883_a_at) / RFU TMEM136 (11760407_x_at) / Fold change /veh TMEM136 (11760407_x_at) / RFU CLDN22 /// WWC2 (11732394_at) / Fold change /veh CLDN22 /// WWC2 (11732394_at) / RFU HLA-DPB1 (11760878_x_at) / Fold change /veh HLA-DPB1 (11760878_x_at) / RFU SPINT1 (11716480_a_at) / Fold change /veh SPINT1 (11716480_a_at) / RFU GAP43 (11754022_s_at) / Fold change /veh GAP43 (11754022_s_at) / RFU A4GNT (11735810_at) / Fold change /veh A4GNT (11735810_at) / RFU PRB3 (11715151_x_at) / Fold change /veh PRB3 (11715151_x_at) / RFU TUBB4B (11761932_at) / Fold change /veh TUBB4B (11761932_at) / RFU CAPN14 (11732068_a_at) / Fold change /veh CAPN14 (11732068_a_at) / RFU TMCC2 (11721928_a_at) / Fold change /veh TMCC2 (11721928_a_at) / RFU IRGQ (11745062_a_at) / Fold change /veh IRGQ (11745062_a_at) / RFU FAM174B (11720279_a_at) / Fold change /veh FAM174B (11720279_a_at) / RFU TMPRSS4 (11748680_a_at) / Fold change /veh TMPRSS4 (11748680_a_at) / RFU FAM212B (11763350_a_at) / Fold change /veh FAM212B (11763350_a_at) / RFU PLEKHG5 (11743358_a_at) / Fold change /veh PLEKHG5 (11743358_a_at) / RFU ZSCAN30 (11745921_a_at) / Fold change /veh ZSCAN30 (11745921_a_at) / RFU CMKLR1 (11741424_a_at) / Fold change /veh CMKLR1 (11741424_a_at) / RFU LOC101060620 /// MAPK8IP1 (11723275_at) / Fold change /veh LOC101060620 /// MAPK8IP1 (11723275_at) / RFU SPTSSB (11747773_x_at) / Fold change /veh SPTSSB (11747773_x_at) / RFU PRSS12 (11739890_at) / Fold change /veh PRSS12 (11739890_at) / RFU BIN1 (11741810_x_at) / Fold change /veh BIN1 (11741810_x_at) / RFU WNT11 (11732464_a_at) / Fold change /veh WNT11 (11732464_a_at) / RFU C10orf10 (11716521_a_at) / Fold change /veh C10orf10 (11716521_a_at) / RFU C5orf56 (11738089_at) / Fold change /veh C5orf56 (11738089_at) / RFU CYB561 (11721691_x_at) / Fold change /veh CYB561 (11721691_x_at) / RFU ANKRD19P (11752326_a_at) / Fold change /veh ANKRD19P (11752326_a_at) / RFU OR2T12 /// OR2T33 /// OR2T8 (11738714_s_at) / Fold change /veh OR2T12 /// OR2T33 /// OR2T8 (11738714_s_at) / RFU VCAN (11748164_a_at) / Fold change /veh VCAN (11748164_a_at) / RFU JSRP1 (11732532_at) / Fold change /veh JSRP1 (11732532_at) / RFU KRTAP10-11 (11738290_x_at) / Fold change /veh KRTAP10-11 (11738290_x_at) / RFU MYO3A (11730013_a_at) / Fold change /veh MYO3A (11730013_a_at) / RFU EBF3 (11725865_a_at) / Fold change /veh EBF3 (11725865_a_at) / RFU CAMK2N1 (11719241_x_at) / Fold change /veh CAMK2N1 (11719241_x_at) / RFU C5orf56 (11738088_a_at) / Fold change /veh C5orf56 (11738088_a_at) / RFU OLFML3 (11715873_a_at) / Fold change /veh OLFML3 (11715873_a_at) / RFU LOC100653217 /// NTM (11731650_a_at) / Fold change /veh LOC100653217 /// NTM (11731650_a_at) / RFU MAPK11 (11762145_a_at) / Fold change /veh MAPK11 (11762145_a_at) / RFU FIZ1 (11724087_x_at) / Fold change /veh FIZ1 (11724087_x_at) / RFU OASL (11726364_x_at) / Fold change /veh OASL (11726364_x_at) / RFU SOX15 (11748057_x_at) / Fold change /veh SOX15 (11748057_x_at) / RFU CD79A (11719716_a_at) / Fold change /veh CD79A (11719716_a_at) / RFU HIST1H1D (11736915_at) / Fold change /veh HIST1H1D (11736915_at) / RFU CASKIN2 (11723855_a_at) / Fold change /veh CASKIN2 (11723855_a_at) / RFU LOC730098 (11760151_x_at) / Fold change /veh LOC730098 (11760151_x_at) / RFU OR4N2 (11742367_at) / Fold change /veh OR4N2 (11742367_at) / RFU PRRT2 (11749266_a_at) / Fold change /veh PRRT2 (11749266_a_at) / RFU SNX32 (11753110_a_at) / Fold change /veh SNX32 (11753110_a_at) / RFU CDHR5 (11726645_a_at) / Fold change /veh CDHR5 (11726645_a_at) / RFU RCAN1 (11760418_a_at) / Fold change /veh RCAN1 (11760418_a_at) / RFU FAM167A (11723789_a_at) / Fold change /veh FAM167A (11723789_a_at) / RFU FAM26E (11764081_at) / Fold change /veh FAM26E (11764081_at) / RFU ISYNA1 (11749810_s_at) / Fold change /veh ISYNA1 (11749810_s_at) / RFU ACY1 (11761880_at) / Fold change /veh ACY1 (11761880_at) / RFU 11764098_at / Fold change /veh 11764098_at / RFU SAMD14 (11745864_x_at) / Fold change /veh SAMD14 (11745864_x_at) / RFU NPB (11741838_a_at) / Fold change /veh NPB (11741838_a_at) / RFU TMPRSS6 (11731388_a_at) / Fold change /veh TMPRSS6 (11731388_a_at) / RFU KRTAP10-2 (11738614_at) / Fold change /veh KRTAP10-2 (11738614_at) / RFU ARHGAP8 /// PRR5-ARHGAP8 (11727945_x_at) / Fold change /veh ARHGAP8 /// PRR5-ARHGAP8 (11727945_x_at) / RFU KRTAP5-7 /// NADSYN1 (11734609_at) / Fold change /veh KRTAP5-7 /// NADSYN1 (11734609_at) / RFU RASL12 (11751679_a_at) / Fold change /veh RASL12 (11751679_a_at) / RFU CDKN2B (11736163_a_at) / Fold change /veh CDKN2B (11736163_a_at) / RFU PRF1 (11729649_at) / Fold change /veh PRF1 (11729649_at) / RFU, ZNF638 /// ZNF638-IT1 / Fold change vs veh, ZNF638 /// ZNF638-IT1 / RFU, PANK3 / Fold change vs veh, PANK3 / RFU, SH3YL1 / Fold change vs veh, SH3YL1 / RFU, ZEB2 / Fold change vs veh, ZEB2 / RFU, NRIP1 / Fold change vs veh, NRIP1 / RFU, PTTG1IP / Fold change vs veh, PTTG1IP / RFU, CAPN2 / Fold change vs veh, CAPN2 / RFU, MED14 / Fold change vs veh, MED14 / RFU, SNORA58 / Fold change vs veh, SNORA58 / RFU, C1orf63 / Fold change vs veh, C1orf63 / RFU, LRRFIP1 / Fold change vs veh, LRRFIP1 / RFU, NDUFAF7 / Fold change vs veh, NDUFAF7 / RFU, SLC12A2 / Fold change vs veh, SLC12A2 / RFU, IBTK / Fold change vs veh, IBTK / RFU, ESF1 / Fold change vs veh, ESF1 / Fold change vs veh, TMEM50B / RFU, TAOK1 / Fold change vs veh, TAOK1 / RFU, ACBD3 / Fold change vs veh, ACBD3 / RFU, TMA16 / Fold change vs veh, TMA16 / RFU, RWDD3 / Fold change vs veh, RWDD3 / RFU, BCAT1 / Fold change vs veh, BCAT1 / RFU, EDEM3 / Fold change vs veh, EDEM3 / RFU, TMEM33 / Fold change vs veh, TMEM33 / RFU, WDR75 / Fold change vs veh, WDR75 / RFU, AHCTF1 / Fold change vs veh, AHCTF1 / RFU, TFRC / Fold change vs veh, TFRC / RFU, ZDHHC17 / Fold change vs veh, ZDHHC17 / RFU, NOM1 / Fold change vs veh, NOM1 / RFU, ARL8B / Fold change vs veh, ARL8B / RFU, ZBTB11 / Fold change vs veh, ZBTB11 / RFU, TAMM41 / Fold change vs veh, TAMM41 / RFU, KIAA1704 /// LOC100996395 / Fold change vs veh, KIAA1704 /// LOC100996395 / RFU, ING1 / Fold change vs veh, ING1 / RFU, TRMT61B / Fold change vs veh, TRMT61B / RFU, FUBP3 / Fold change vs veh, FUBP3 / RFU, TP53 / Fold change vs veh, TP53 / RFU, TNKS2 / Fold change vs veh, TNKS2 / RFU, ZFP14 / Fold change vs veh, ZFP14 / RFU, ACTR2 / Fold change vs veh, ACTR2 / RFU, PPP3R1 / Fold change vs veh, PPP3R1 / RFU, PIK3R1 / Fold change vs veh, PIK3R1 / RFU, HNRNPA1 / Fold change vs veh, HNRNPA1 / RFU, RNF170 / Fold change vs veh, RNF170 / RFU, ZNF28 / Fold change vs veh, ZNF28 / RFU, RNGTT / Fold change vs veh, RNGTT / RFU, OGT / Fold change vs veh, OGT / RFU, BRD1 / Fold change vs veh, BRD1 / RFU, MARS / Fold change vs veh, MARS / RFU, ZNF655 / Fold change vs veh, ZNF655 / RFU, FAHD1 / Fold change vs veh, FAHD1 / RFU, BDP1 / Fold change vs veh, BDP1 / RFU, LRRCC1 / Fold change vs veh, LRRCC1 / RFU, ARID1A / Fold change vs veh, ARID1A / RFU, ZNF146 / Fold change vs veh, ZNF146 / RFU, ZNF330 / Fold change vs veh, ZNF330 / RFU, GPN3 / Fold change vs veh, GPN3 / RFU, C9orf123 / Fold change vs veh, C9orf123 / RFU, N4BP2L2 / Fold change vs veh, N4BP2L2 / RFU, ARFIP1 / Fold change vs veh, ARFIP1 / RFU, FAM179B / Fold change vs veh, FAM179B / RFU, BCL10 / Fold change vs veh, BCL10 / RFU, UHRF1BP1L / Fold change vs veh, UHRF1BP1L / RFU, BET1 / Fold change vs veh, BET1 / RFU, CNOT2 / Fold change vs veh, CNOT2 / RFU, ZNF268 / Fold change vs veh, ZNF268 / Fold change vs veh, ZNF507 / RFU, DGCR2 / Fold change vs veh, DGCR2 / RFU, WDSUB1 / Fold change vs veh, WDSUB1 / Fold change vs veh, HSP90B1 /// MIR3652 / RFU, ADSS / Fold change vs veh, ADSS / RFU, GK / Fold change vs veh, GK / RFU, ZNF148 / Fold change vs veh, ZNF148 / RFU, TAF9 / Fold change vs veh, TAF9 / RFU, SLC1A5 / Fold change vs veh, SLC1A5 / RFU, SLMO2 / Fold change vs veh, SLMO2 / RFU, ABCC4 / Fold change vs veh, ABCC4 / RFU, LOC101060439 /// RAP1B / Fold change vs veh, LOC101060439 /// RAP1B / RFU, RFX7 / Fold change vs veh, RFX7 / RFU, GTPBP10 / Fold change vs veh, GTPBP10 / RFU, CNEP1R1 / Fold change vs veh, CNEP1R1 / RFU, BIVM-ERCC5 /// ERCC5 / Fold change vs veh, BIVM-ERCC5 /// ERCC5 / RFU, ILF3 / Fold change vs veh, ILF3 / RFU 11762660_at / Fold change /veh 11762660_at / RFU VCAN (11757783_s_at) / Fold change /veh VCAN (11757783_s_at) / RFU DDX43 (11728927_at) / Fold change /veh DDX43 (11728927_at) / RFU KRT8 (11758188_x_at) / Fold change /veh KRT8 (11758188_x_at) / RFU NKD1 (11759106_at) / Fold change /veh NKD1 (11759106_at) / RFU SRD5A1 (11742802_a_at) / Fold change /veh SRD5A1 (11742802_a_at) / RFU TPSAB1 /// TPSB2 (11721975_s_at) / Fold change /veh TPSAB1 /// TPSB2 (11721975_s_at) / RFU GSTM3 (11746129_a_at) / Fold change /veh GSTM3 (11746129_a_at) / RFU IL23R (11737362_x_at) / Fold change /veh IL23R (11737362_x_at) / RFU TMEM51 (11727254_a_at) / Fold change /veh TMEM51 (11727254_a_at) / RFU PIWIL2 (11732686_x_at) / Fold change /veh PIWIL2 (11732686_x_at) / RFU ORM1 (11744905_x_at) / Fold change /veh ORM1 (11744905_x_at) / RFU CCDC152 (11743942_at) / Fold change /veh CCDC152 (11743942_at) / RFU ECM1 (11717891_a_at) / Fold change /veh ECM1 (11717891_a_at) / RFU IL23R (11748794_a_at) / Fold change /veh IL23R (11748794_a_at) / RFU TNFAIP8L3 (11732012_x_at) / Fold change /veh TNFAIP8L3 (11732012_x_at) / RFU MBOAT4 (11741988_at) / Fold change /veh MBOAT4 (11741988_at) / RFU 11764193_at / Fold change /veh 11764193_at / RFU TMEM53 (11763286_at) / Fold change /veh TMEM53 (11763286_at) / RFU MAGEB2 (11727129_at) / Fold change /veh MAGEB2 (11727129_at) / RFU TMEM200A (11744735_a_at) / Fold change /veh TMEM200A (11744735_a_at) / RFU CCDC152 (11751479_a_at) / Fold change /veh CCDC152 (11751479_a_at) / RFU FAM211A (11726209_a_at) / Fold change /veh FAM211A (11726209_a_at) / RFU RGS16 (11746705_a_at) / Fold change /veh RGS16 (11746705_a_at) / RFU VCAN (11755009_s_at) / Fold change /veh VCAN (11755009_s_at) / RFU RHOB (11743442_s_at) / Fold change /veh RHOB (11743442_s_at) / RFU RGS16 (11720943_a_at) / Fold change /veh RGS16 (11720943_a_at) / RFU RGS16 (11720944_at) / Fold change /veh RGS16 (11720944_at) / RFU, VPS4B / Fold change vs veh, VPS4B / RFU, CREB1 / Fold change vs veh, CREB1 / RFU, DNAJC13 / Fold change vs veh, DNAJC13 / RFU, GNAQ / Fold change vs veh, GNAQ / RFU, CDK5R1 / Fold change vs veh, CDK5R1 / RFU, ZRANB3 / Fold change vs veh, ZRANB3 / RFU, CUL4A / Fold change vs veh, CUL4A / RFU, CCNY / Fold change vs veh, CCNY / RFU, UFL1 / Fold change vs veh, UFL1 / RFU, COG3 / Fold change vs veh, COG3 / RFU, DIAPH2 / Fold change vs veh, DIAPH2 / RFU, SKA2 / Fold change vs veh, SKA2 / RFU, AFF3 / Fold change vs veh, AFF3 / RFU, LMF1 / Fold change vs veh, LMF1 / RFU, IPO11 / Fold change vs veh, IPO11 / RFU, DFFB / Fold change vs veh, DFFB / RFU, FOXP1 / Fold change vs veh, FOXP1 / RFU, CARD8 / Fold change vs veh, CARD8 / RFU, STRN3 / Fold change vs veh, STRN3 / RFU, ADK / Fold change vs veh, ADK / RFU, RASSF2 / Fold change vs veh, RASSF2 / RFU, WIPF1 / Fold change vs veh, WIPF1 / RFU, LARP1B / Fold change vs veh, LARP1B / RFU, RASA1 / Fold change vs veh, RASA1 / RFU, RB1 / Fold change vs veh, RB1 / RFU, PPFIA1 / Fold change vs veh, PPFIA1 / RFU, MAT2A / Fold change vs veh, MAT2A / RFU, CCT5 / Fold change vs veh, CCT5 / RFU, WDR92 / Fold change vs veh, WDR92 / RFU, CUX1 / Fold change vs veh, CUX1 / RFU, TTC7A / Fold change vs veh, TTC7A / RFU, TMEM135 / Fold change vs veh, TMEM135 / RFU, DEPTOR / Fold change vs veh, DEPTOR / RFU, CPM / Fold change vs veh, CPM / RFU, DNAJB6 / Fold change vs veh, DNAJB6 / RFU, CACNA2D3 / Fold change vs veh, CACNA2D3 / RFU, DTX4 / Fold change vs veh, DTX4 / RFU, TFCP2 / Fold change vs veh, TFCP2 / RFU, GMCL1 /// GMCL1P1 / Fold change vs veh, GMCL1 /// GMCL1P1 / RFU, AEBP2 / Fold change vs veh, AEBP2 / RFU, SNHG1 /// SNORD22 /// SNORD25 /// SNORD26 /// SNORD27 /// SNORD28 /// SNORD29 /// SNORD31 / Fold change vs veh, SNHG1 /// SNORD22 /// SNORD25 /// SNORD26 /// SNORD27 /// SNORD28 /// SNORD29 /// SNORD31 / Fold change (Aza/veh), C12orf56 (ProbeSet 11735607_a_at) / Fold change (ACY-1035/veh), C12orf56 (ProbeSet 11735607_a_at) / Fold change (Aza/veh), FGFR1OP (ProbeSet 11751329_s_at) / Fold change (ACY-1035/veh), FGFR1OP (ProbeSet 11751329_s_at) / Fold change (Aza/veh), VPS36 (ProbeSet 11739960_a_at) / Fold change (ACY-1035/veh), VPS36 (ProbeSet 11739960_a_at) / RFU SYPL1 (11715823_x_at) / Fold change /veh SYPL1 (11715823_x_at) / RFU IGFBP7 (11715501_s_at) / Fold change /veh IGFBP7 (11715501_s_at) / RFU REEP3 (11722064_at) / Fold change /veh REEP3 (11722064_at) / RFU IGLL1 (11728026_x_at) / Fold change /veh IGLL1 (11728026_x_at): dose or concentration left out as unconfirmed. Particulars: ProbeSet 11744854_x_at; LIST B.

The values that follow come from article PMC5218480 (PLoS ONE, 2017).

Molecules are shown by their SMILES.

On to `Nc1ncn([C@@H]2O[C@H](CO)[C@@H](O)[C@H]2O)c(=O)n1` [azacitidine], for which the “Fold change vs veh, ZNF28” value was determined as 0.91.
